Measured values reported in US12275722B2, “Process of reworking a crystalline form of a glycine transport inhibitor” (Boehringer Ingelheim International GmbH, priority 2020, dated 2025).
Values belong to the compound of their own block, whether it stands above or below them.

What was measured:
[1] = Bulk density of the dried/homogenized Compound batches; format: physicochemical; details: reworked (dried, homogenized) drug substance batch
[2] = Water sorption (dynamic vapor sorption), water-uptake; format: physicochemical; details: 25° C., 90% relative humidity for 6 hours under humid nitrogen purge
Method: Water sorption isotherms can be determined using a dynamic vapor sorption system (Advantage, DVS, London, UK). The samples are subjected to 0 to 90% relative humidity (RH) stepwise with a step size of 10% at 25° C. Each sample is equilibrated at each RH step for at least 60 min, and equilibrium is assumed if weight increase is less than 0.1% within one minute, and the maximum duration on each RH is 6 hours. Therefore, each sample is held at a given RH for 1 to 6 hours depending on how fast the equilibrium is reached.

Bulk density ([1]; listed as 2TB): 0.2 g/mL
Structure (SMILES): C[C@@H](Oc1ccc(S(C)(=O)=O)cc1C(=O)N1C[C@@H]2C[C@]2(c2cc(C(F)(F)F)on2)C1)C(F)(F)F [Batch 2TB]

Bulk density ([1]; listed as 1TA): 0.17 g/mL
Structure (SMILES): C[C@@H](Oc1ccc(S(C)(=O)=O)cc1C(=O)N1C[C@@H]2C[C@]2(c2cc(C(F)(F)F)on2)C1)C(F)(F)F [Batch 1TA]

Bulk density ([1]; listed as 1TB): 0.16 g/mL
Structure (SMILES): C[C@@H](Oc1ccc(S(C)(=O)=O)cc1C(=O)N1C[C@@H]2C[C@]2(c2cc(C(F)(F)F)on2)C1)C(F)(F)F [Batch 1TB]

Bulk density ([1]; listed as 4TA): 0.22 g/mL
Structure (SMILES): C[C@@H](Oc1ccc(S(C)(=O)=O)cc1C(=O)N1C[C@@H]2C[C@]2(c2cc(C(F)(F)F)on2)C1)C(F)(F)F [Batch 4TA]

Bulk density ([1]; listed as 2TA): 0.17 g/mL
Structure (SMILES): C[C@@H](Oc1ccc(S(C)(=O)=O)cc1C(=O)N1C[C@@H]2C[C@]2(c2cc(C(F)(F)F)on2)C1)C(F)(F)F [Batch 2TA]

Bulk density ([1]; listed as 3TA): 0.18 g/mL
Structure (SMILES): C[C@@H](Oc1ccc(S(C)(=O)=O)cc1C(=O)N1C[C@@H]2C[C@]2(c2cc(C(F)(F)F)on2)C1)C(F)(F)F [Batch 3TA]

Bulk density ([1]; listed as 3TB): 0.17 g/mL
Structure (SMILES): C[C@@H](Oc1ccc(S(C)(=O)=O)cc1C(=O)N1C[C@@H]2C[C@]2(c2cc(C(F)(F)F)on2)C1)C(F)(F)F [Batch 3TB]

Bulk density ([1]; listed as 4TB): 0.17 g/mL
Structure (SMILES): C[C@@H](Oc1ccc(S(C)(=O)=O)cc1C(=O)N1C[C@@H]2C[C@]2(c2cc(C(F)(F)F)on2)C1)C(F)(F)F [Batch 4TB]

Continued, compound first:

Structure (SMILES): C[C@@H](Oc1ccc(S(C)(=O)=O)cc1C(=O)N1C[C@@H]2C[C@]2(c2cc(C(F)(F)F)on2)C1)C(F)(F)F [Batch 6]
Bulk density ([1]; listed as 6): 0.15 g/mL

Structure (SMILES): C[C@@H](Oc1ccc(S(C)(=O)=O)cc1C(=O)N1C[C@@H]2C[C@]2(c2cc(C(F)(F)F)on2)C1)C(F)(F)F [Batch 1098955]
Bulk density ([1]; listed as 8955): 0.15 g/mL

Structure (SMILES): C[C@@H](Oc1ccc(S(C)(=O)=O)cc1C(=O)N1C[C@@H]2C[C@]2(c2cc(C(F)(F)F)on2)C1)C(F)(F)F [Batch 1098943]
Bulk density ([1]; listed as 8943): 0.14 g/mL

Structure (SMILES): C[C@@H](Oc1ccc(S(C)(=O)=O)cc1C(=O)N1C[C@@H]2C[C@]2(c2cc(C(F)(F)F)on2)C1)C(F)(F)F [Batch 1098942]
Bulk density ([1]; listed as 8942): 0.16 g/mL

Structure (SMILES): C[C@@H](Oc1ccc(S(C)(=O)=O)cc1C(=O)N1C[C@@H]2C[C@]2(c2cc(C(F)(F)F)on2)C1)C(F)(F)F [polymorph II, [5-(methylsulfonyl)-2-{[(2R)-1,1,1-trifluoropropan-2-yl]oxy}phenyl]{(1R,5R)-1-[5-(trifluoromethyl)-1,2-oxazol-3-yl]-3-azabicyclo[3.1.0]hex-3-yl}methanone]
Water-uptake [2]: about 0.04%

Structure (SMILES): C[C@@H](Oc1ccc(S(C)(=O)=O)cc1C(=O)N1C[C@@H]2C[C@]2(c2cc(C(F)(F)F)on2)C1)C(F)(F)F [Batch 1098954]
Bulk density ([1]; listed as 8954): 0.15 g/mL

Structure (SMILES): C[C@@H](Oc1ccc(S(C)(=O)=O)cc1C(=O)N1C[C@@H]2C[C@]2(c2cc(C(F)(F)F)on2)C1)C(F)(F)F [Batch 1099101]
Bulk density ([1]; listed as 9101): 0.14 g/mL

Structure (SMILES): C[C@@H](Oc1ccc(S(C)(=O)=O)cc1C(=O)N1C[C@@H]2C[C@]2(c2cc(C(F)(F)F)on2)C1)C(F)(F)F [Batch 18105]
Bulk density ([1]; listed as 18105): 0.12 g/mL

Structure (SMILES): C[C@@H](Oc1ccc(S(C)(=O)=O)cc1C(=O)N1C[C@@H]2C[C@]2(c2cc(C(F)(F)F)on2)C1)C(F)(F)F [Batch 18107]
Bulk density ([1]; listed as 18107): 0.14 g/mL

Structure (SMILES): C[C@@H](Oc1ccc(S(C)(=O)=O)cc1C(=O)N1C[C@@H]2C[C@]2(c2cc(C(F)(F)F)on2)C1)C(F)(F)F [Batch 1099100]
Bulk density ([1]; listed as 9100): 0.15 g/mL

Structure (SMILES): C[C@@H](Oc1ccc(S(C)(=O)=O)cc1C(=O)N1C[C@@H]2C[C@]2(c2cc(C(F)(F)F)on2)C1)C(F)(F)F [Batch 1099104]
Bulk density ([1]; listed as 9104): 0.15 g/mL

Structure (SMILES): C[C@@H](Oc1ccc(S(C)(=O)=O)cc1C(=O)N1C[C@@H]2C[C@]2(c2cc(C(F)(F)F)on2)C1)C(F)(F)F [Batch 1099103]
Bulk density ([1]; listed as 9103): 0.15 g/mL

Structure (SMILES): C[C@@H](Oc1ccc(S(C)(=O)=O)cc1C(=O)N1C[C@@H]2C[C@]2(c2cc(C(F)(F)F)on2)C1)C(F)(F)F [Batch 1099102]
Bulk density ([1]; listed as 9102): 0.15 g/mL

Structure (SMILES): C[C@@H](Oc1ccc(S(C)(=O)=O)cc1C(=O)N1C[C@@H]2C[C@]2(c2cc(C(F)(F)F)on2)C1)C(F)(F)F [Batch 18106]
Bulk density ([1]; listed as 18106): 0.15 g/mL

Structure (SMILES): C[C@@H](Oc1ccc(S(C)(=O)=O)cc1C(=O)N1C[C@@H]2C[C@]2(c2cc(C(F)(F)F)on2)C1)C(F)(F)F [Batch 17104]
Bulk density ([1]; listed as 17104): 0.23 g/mL

Structure (SMILES): C[C@@H](Oc1ccc(S(C)(=O)=O)cc1C(=O)N1C[C@@H]2C[C@]2(c2cc(C(F)(F)F)on2)C1)C(F)(F)F [amorphous form, [5-(methylsulfonyl)-2-{[(2R)-1,1,1-trifluoropropan-2-yl]oxy}phenyl]{(1R,5R)-1-[5-(trifluoromethyl)-1,2-oxazol-3-yl]-3-azabicyclo[3.1.0]hex-3-yl}methanone]
Water-uptake [2]: 1.4%

Structure (SMILES): C[C@@H](Oc1ccc(S(C)(=O)=O)cc1C(=O)N1C[C@@H]2C[C@]2(c2cc(C(F)(F)F)on2)C1)C(F)(F)F [Batch 17102]
Bulk density ([1]; listed as 17102): 0.35 g/mL

Structure (SMILES): C[C@@H](Oc1ccc(S(C)(=O)=O)cc1C(=O)N1C[C@@H]2C[C@]2(c2cc(C(F)(F)F)on2)C1)C(F)(F)F [Batch 17103]
Bulk density ([1]; listed as 17103): 0.50 g/mL

Structure (SMILES): C[C@@H](Oc1ccc(S(C)(=O)=O)cc1C(=O)N1C[C@@H]2C[C@]2(c2cc(C(F)(F)F)on2)C1)C(F)(F)F [Batch 5]
Bulk density ([1]; listed as 5): 0.14 g/mL
